In patent US7445894B2, “Compositions and methods for detection and isolation of phosphorylated molecules” (priority 2002, dated 2008):

Legend:
lysozyme = target: T1, lysozyme (Gallus gallus, UniProt P00698); assay: Fluorescence polarization of Compound 2-Ga3+ with non-phosphorylated control protein; assay type: binding; conditions: 1.0 μM Compound 2, 100 μM lysozyme plus 1 μM gallium chloride
T1 construct: purchased Sigma Chemical Company L-7651
Protocol: (§1) First, an assay was conducted with a (1) phosphoprotein (ovalbumin) and a (2) control non-phosphorylated protein (lysozyme). A modified binding solution containing 1.0 μM Compound 2 was incubated in 50 mM 2-(N-morpholino)ethanesulfonic acid (pH 3.0 to 3.5), 500 mM NaCl at room temperature in parallel to solutions containing, in addition, (a) 1 μM gallium chloride, (b) 100 μM lysozyme plus 1 μM gallium chloride, or (c) and 100 μM ovalbumin plus 1 μM gallium chloride. The fluorescence polarization of the resulting solutions was then measured in a fluorescence spectrophotometer with excitation at 530 nm and emission at 545 to 700 nm. The integrated polarized emission spectra yielded anisotropy “r values” of: r=0.10+/−0.003+/−0.02 (Compound 2 plus gallium); r=0.10+/−0.002 (Compound 2 plus lysozyme non-phosphorylated control); r=0.34+/−0.002 (Compound 2 plus gallium plus ovalbumin), indicating phosphorylation-dependent binding of the Compound 2 to this phosphoprotein (see FIG. 10A)

β-casein = target: T2, β-casein (Bos taurus, UniProt P02666); assay: Phosphoprotein detection on HydroGel microarray; conditions: pentaphosphorylated protein, binding solution with gallium chloride
T2 sequence (P02666 16-224): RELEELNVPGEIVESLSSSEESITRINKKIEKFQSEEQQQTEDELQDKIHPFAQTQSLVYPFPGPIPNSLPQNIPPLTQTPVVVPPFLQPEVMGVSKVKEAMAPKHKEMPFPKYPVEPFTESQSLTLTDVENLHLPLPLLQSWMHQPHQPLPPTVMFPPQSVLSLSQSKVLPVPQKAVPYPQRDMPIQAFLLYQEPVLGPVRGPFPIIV
Protocol: The protein was loaded in a two-fold dilution series from 166 pg-0.324 pg on the microarray.
Four specific, purified proteins including β-casein, ovalbumin, pepsin and bovine serum albumin were arrayed from a source plate (384 well plate) at a concentration of 0.975 μg/mL-0.5 mg/mL in water, onto HydroGel coated slides (Perkin Elmer), using the BioChip Arrayer™ (Packard Instrument Co., Meriden, Conn.). The BioChip Arrayer™ utilizes a PiezoTip™ Dispenser consisting of 4 glass capillaries. Proteins were dispensed from the PiezoTip™ by droplets 333 pL in volume to create array spots 175 microns in diameter with a 500 micron horizontal and vertical pitch (pitch=center to center spacing of spots). Proteins were arrayed in duplicate in four rows, with 10 dilution points, resulting in an array of 160 spots. The resulting concentration range of the array was 166.5 pg/spot-0.325 pg/spot. For detection of phosphoproteins, slides were incubated for 1 hour on a rotator in 1 μM of Compound 2, in buffer containing 0.5 M NaCl, 20% 1,2-propanediol, 1 μM GaCl3, and 0.05 M NaOAc, pH 4.0. Slides were then washed for 1 hour on a rotator in 0.05 M NaOAc, pH 4.0, containing 10% methanol followed by a 15 minute water wash. […] Phosphate content per protein was determined to be as follows: β-casein, five phosphates; ovalbumin, two phosphates; pepsin, one phosphate; and BSA, no phosphates.

ovalbumin = target: T3, ovalbumin (Gallus gallus, UniProt P01012); assay: Fluorescence polarization of Compound 2-Ga3+ with phosphoprotein; assay type: binding; conditions: 1.0 μM Compound 2, 100 μM ovalbumin plus 1 μM gallium chloride
T3 construct: purchased Sigma Chemical Company A-7641
T3 sequence (P01012 1-386): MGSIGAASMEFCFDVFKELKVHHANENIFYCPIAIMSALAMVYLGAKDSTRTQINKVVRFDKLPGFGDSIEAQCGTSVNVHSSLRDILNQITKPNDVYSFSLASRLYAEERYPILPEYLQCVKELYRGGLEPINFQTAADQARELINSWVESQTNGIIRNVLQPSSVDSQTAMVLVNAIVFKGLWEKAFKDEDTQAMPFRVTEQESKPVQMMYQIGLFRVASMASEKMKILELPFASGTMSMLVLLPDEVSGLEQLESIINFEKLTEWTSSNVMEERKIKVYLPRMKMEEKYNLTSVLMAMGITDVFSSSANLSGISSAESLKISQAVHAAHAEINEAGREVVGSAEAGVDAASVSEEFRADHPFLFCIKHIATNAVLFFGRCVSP
Protocol: as §1

pDSIP = target: T4, pDSIP (Oryctolagus cuniculus, UniProt P01158); assay: Phosphopeptide detection on HydroGel microarray; conditions: monophosphorylated peptide, binding solution with gallium chloride
T4 construct: purchased SynPep Corporation
Protocol: The peptide was loaded in a two-fold dilution series from […] on the microarray.
Two peptides, Kemptide and pDSIP, were arrayed on to HydroGel coated slides (Perkin Elmer) from a source plate (384-well) with a concentration of 0.03125 to 2 mg/mL peptide in water. The amino acid sequence of Kemptide is LRRASLG (SEQ ID NO. 1, MW 771.9) the amino acid sequence of pDSIP is […] (SEQ ID NO. 2, MW 929.5), wherein the serine residue is substituted with PO2H. Arrays were spotted using a manual glass slide arrayer (V & P Scientific, San Diego, Calif.) fixed with 4 rows of 8 pins (32 total), ˜500 micron diameter spot size, […] horizontal pitch and 750 micron vertical pitch (pitch=center to center spacing of spots). The hand arrayer collected 6 nL of peptide from the source plate and transferred ˜6 nL to the array surface by direct contact. The resultant peptide concentration was 0.18 to 12 ng/spot. Peptides were arrayed in replicates of 6, resulting in an array of 84 spots. For specific detection of pDSIP, the phosphopeptide, slides were incubated for 1 hour on a rotator in 1 μM dye of compound 2 in buffer containing 0.5 M NaCl, 20% 1,2-propanediol, 1 μM GaCl3, and 0.05 M NaOAc, pH 4.0. Slides were then washed for 1 hour on a rotator in 0.05 M NaOAc, pH 4.0, containing 10% methanol followed by a 15-minute water wash. […]

T1 sequence (P00698 19-147): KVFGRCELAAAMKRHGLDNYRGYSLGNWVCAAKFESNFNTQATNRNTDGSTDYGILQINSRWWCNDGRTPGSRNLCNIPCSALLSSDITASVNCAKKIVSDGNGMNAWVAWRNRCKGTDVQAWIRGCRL

Question: How did the anisotropy r value (lysozyme) turn out when Rhod-5F [Compound 2] was run?
Answer: The anisotropy r value was 0.10+/−0.002.

Question: And the “amount detected on HydroGel microarray” value (β-casein)?
Answer: Its value is 0.65 pg.

Question: And the anisotropy r value (ovalbumin)?
Answer: Its anisotropy r value is 0.34+/−0.002.

Question: What about the “amount detectable on HydroGel microarray” value (pDSIP) of the same substance?
Answer: The value was 300 fg.
